# Assay results published in patent US20260159497A1, “SOLID FORMS OF A COMPLEMENT FACTOR B INHIBITOR” (Novartis Pharma AG, priority 2022, published 2026).
# Where two headings read alike, the source gives them in different places.
# What was measured:
# Assay type in all cases: physicochemical
# [1] = Solubility in Simulated Fluids at 37° C.; conditions: for solubility at 30 min / solubility at 24 h: 37 °C, thermodynamic from solid; for solubility at 30 min: read-out: Solubility (mg/mL) 30 min; for solubility at 24 h: read-out: Solubility (mg/mL) 24 h
# From the text: Solubility data of Form A (S)-4-(2,2-difluoro-7-((5-methoxy-7-methyl-1H-indol-4-yl)methyl)-7-azaspiro[3.5]nonan-6-yl)benzoic acid, Form B (S)-4-(2,2-difluoro-7-((5-methoxy-7-methyl-1H-indol-4-yl)methyl)-7-azaspiro[3.5]nonan-6-yl)benzoic acid p-toluene sulfonic acid salt, Form C (S)-4-(2,2-difluoro-7-((5-methoxy-7-methyl-1H-indol-4-yl)methyl)-7-azaspiro[3.5]nonan-6-yl)benzoic acid p-toluene sulfonic acid salt, and Form D (S)-4-(2,2-difluoro-7-((5-methoxy-7-methyl-1H-indol-4-yl)methyl)-7-azaspiro[3.5]nonan-6-yl)benzoic acid hydrochloride salt in Simulated Fluids at 37° C.
# [2] = Intrinsic dissolution rate
# [3] = Compression stability (XRPD after compression); conditions: 4 tons of compression for 5 min
# From the text: Method: […] Afterwards, characterize the sample by XRPD to detect any change in the solid state.
# [4] = Flow properties
# From the text: See U.S. Pat. No. 11,642,315.
# [5] = Grinding and wet granulation
# From the text: Method: Granulate was obtained in solid-state forms. […] Dry the wet-cake under vacuum or at atmospheric pressure. Evaluate solid form and degree of crystallinity by e.g. XRPD and/or DSC.
# [6] = Dynamic vapor sorption (DVS) mass change; conditions: for Mass change by DVS, Desorption (%) / Mass change by DVS, Sorption (%): Table 5, 25 degree C., based on dry weight; for Mass change by DVS, 1st Desorption (%) / Mass change by DVS, 1st Sorption (%) / Mass change by DVS, 2nd Desorption (%) / Mass change by DVS, 2nd Sorption (%): Table 6, DVS at 25 degree C.
# From the text: [table] The mass change by DVS isotherm (2 cycles 40-0-95-0-40% RH) are in the tables below. The mass change is based on the dry weight of each.
# [7] = pH 2.0, 0.01 M HCl, 37° C., 100 rpm, 120 min
# [8] = pH 6.5, phosphate buffer 50 mM (PBS-V1), 37° C., 100 rpm, 120 min
structure (smiles),measurement,setting,value
"COc1cc(C)c2[nH]ccc2c1CN1CCC2(C[C@H]1c1ccc(C(=O)O)cc1)CC(F)(F)C2.Cc1ccc(S(=O)(=O)O)cc1 [Form B, (S)-4-(2,2-difluoro-7-((5-methoxy-7-methyl-1H-indol-4-yl)methyl)-7-azaspiro[3.5]nonan-6-yl)benzoic acid p-toluene sulfonate]",solubility at 30 min,"[1]; fassif, FaSSIF, 30 min",> 2 mg/mL
same,solubility at 30 min,"[1]; fessif, FeSSIF, 30 min",> 2 mg/mL
same,solubility at 24 h,"[1]; fessif, FeSSIF, 24 h",> 2 mg/mL
same,solubility at 30 min,"[1]; pH 7, water, Water, initial pH 7.00, 30 min",0.48 mg/mL
same,solubility at 24 h,"[1]; pH 7, water, Water, initial pH 7.00, 24 h",0.56 mg/mL
same,pH at 24 h,[1]; FaSSGF,1.5
same,Solubility (mg/mL) 30 min,"[1]; FaSSGF, 30 min",0.40 mg/mL
same,Solubility (mg/mL) 24 h,"[1]; FaSSGF, 24 h",0.54 mg/mL
same,pH at 24 h,[1]; FaSSIF,6.13
same,Solubility (mg/mL) 24 h,"[1]; FaSSIF, 24 h",0.53 (salt mg/mL
same,pH at 24 h,[1]; FeSSIF,4.87
same,pH at 24 h,"[1]; Water, initial pH 7.00",3.60
same,intrinsic dissolution rate,[2]; PBS-V1 (pH 6.5),0.18 mg/min/cm^2
same,intrinsic dissolution rate,"[2]; pH 2.0, 0.01 M HCl",0.015 mg/min/cm^2
same,form change after intrinsic dissolution,[2]; [7],(No form change)
same,intrinsic dissolution rate,[2]; [7],0.015 mg · min^−1 · cm^−2
same,form change after intrinsic dissolution,[2]; [8],(No form change
same,intrinsic dissolution rate,[2]; [8],0.18 mg · min^−1 · cm^−2
same,form change in XRPD after compression,[3],no form change
same,bulk density,[4],good bulk density
same,flowability,[4],good flowability
same,crystallinity from XRPD pattern after grinding,[5]; after grinding,crystallinity decrease
same,form change after grinding and wet granulation,[5]; dry grinding (2 min and 5 min) and wet granulation (water and ethanol),did not lead to any form change
same,water sorption and desorption behavior,[6],reversible water sorption and desorption behavior with no hysteresis
same,maximum water uptake in DVS,[6]; 95% RH at 25° C.,2.67%
same,moisture absorbed by DVS (absorbs up to),[6]; 95% RH at 25° C.,up to 2.7%
same,"Mass change by DVS, Desorption (%)",[6]; 0% RH,0.00%
same,"Mass change by DVS, Sorption (%)",[6]; 0% RH,0.00%
same,"Mass change by DVS, Desorption (%)",[6]; 10% RH,1.11%
same,"Mass change by DVS, Sorption (%)",[6]; 10% RH,1.08%
same,"Mass change by DVS, Desorption (%)",[6]; 20% RH,1.66%
same,"Mass change by DVS, Sorption (%)",[6]; 20% RH,1.64%
same,"Mass change by DVS, Desorption (%)",[6]; 30% RH,1.93%
same,"Mass change by DVS, Sorption (%)",[6]; 30% RH,1.92%
same,"Mass change by DVS, Desorption (%)",[6]; 40% RH,2.10%
same,"Mass change by DVS, Sorption (%)",[6]; 40% RH,2.09%
same,"Mass change by DVS, Desorption (%)",[6]; 50% RH,2.22%
same,"Mass change by DVS, Sorption (%)",[6]; 50% RH,2.21%
same,"Mass change by DVS, Desorption (%)",[6]; 60% RH,2.32%
same,"Mass change by DVS, Sorption (%)",[6]; 60% RH,2.31%
same,"Mass change by DVS, Desorption (%)",[6]; 70% RH,2.39%
same,"Mass change by DVS, Sorption (%)",[6]; 70% RH,2.38%
same,"Mass change by DVS, Desorption (%)",[6]; 80% RH,2.46%
same,"Mass change by DVS, Sorption (%)",[6]; 80% RH,2.45%
same,"Mass change by DVS, Desorption (%)",[6]; 90% RH,2.54%
same,"Mass change by DVS, Sorption (%)",[6]; 90% RH,2.54%
same,"Mass change by DVS, Desorption (%)",[6]; 95% RH,2.62%
same,"Mass change by DVS, Sorption (%)",[6]; 95% RH,2.62%
same,"Mass change by DVS, 1st Desorption (%)",[6]; 0% RH,0.00%
same,"Mass change by DVS, 1st Sorption (%)",[6]; 0% RH,0.00%
same,"Mass change by DVS, 2nd Desorption (%)",[6]; 0% RH,−0.01%
same,"Mass change by DVS, 2nd Sorption (%)",[6]; 0% RH,−0.01%
same,"Mass change by DVS, 1st Desorption (%)",[6]; 10% RH,1.13%
same,"Mass change by DVS, 1st Sorption (%)",[6]; 10% RH,1.11%
same,"Mass change by DVS, 2nd Desorption (%)",[6]; 10% RH,1.13%
same,"Mass change by DVS, 2nd Sorption (%)",[6]; 10% RH,1.11%
same,"Mass change by DVS, 1st Desorption (%)",[6]; 20% RH,1.70%
same,"Mass change by DVS, 1st Sorption (%)",[6]; 20% RH,1.69%
same,"Mass change by DVS, 2nd Desorption (%)",[6]; 20% RH,1.70%
same,"Mass change by DVS, 2nd Sorption (%)",[6]; 20% RH,1.68%
same,"Mass change by DVS, 1st Desorption (%)",[6]; 30% RH,1.98%
same,"Mass change by DVS, 1st Sorption (%)",[6]; 30% RH,1.97%
same,"Mass change by DVS, 2nd Desorption (%)",[6]; 30% RH,1.98%
same,"Mass change by DVS, 2nd Sorption (%)",[6]; 30% RH,1.97%
same,"Mass change by DVS, 1st Desorption (%)",[6]; 40% RH,2.16%
same,"Mass change by DVS, 1st Sorption (%)",[6]; 40% RH,2.15%
same,"Mass change by DVS, 2nd Desorption (%)",[6]; 40% RH,2.16%
same,"Mass change by DVS, 2nd Sorption (%)",[6]; 40% RH,2.15%
same,"Mass change by DVS, 1st Sorption (%)",[6]; 50% RH,2.28%
same,"Mass change by DVS, 2nd Desorption (%)",[6]; 50% RH,2.29%
